Reference: patent US20160175249A1, “Liposomes Containing Oligopeptide Fragments of Myelin Basic Protein, a Pharmaceutical Composition and a Method for Treatment of Multiple Sclerosis” (LIPOXEN TECHNOLOGIES LIMITED, priority 2009, published 2016)

Columns and labels:
EAE-induced DA rats = assay: EAE-induced DA rat model, paralysis score and mortality (DA-EAE-28-02, Example 13); assay type: in vivo; conditions: 54 EAE induced DA rats; daily s.c. injection, 6 total; deaths/N
Experimental: Each of the eight MBP peptide formulations were provided as a lyophilized powder and stored at 4° C. Rehydration of each formulation with water for injection was done daily according to Table 10. MBP peptide formulations were re-suspended in water for injection (Cure Medical) and copaxone (Teva LTD) was diluted with saline to a final concentration of 450 μg/mL. Each subject animal was administered the test formulation for 6 consecutive days by subcutaneous injection.
8-9 week old Dark Agouti (DA) female rats (Harlan Laboratories, Inc.), weighing between 110 and 145 grams were used as the test subjects. The health status of the animals used in this study was examined on arrival. Only animals in good health were acclimatized to laboratory conditions and were used in the study. Animals were provided food ad libitum and free access to drinking water. […]
The rats were evaluated up daily starting 24 hours after immunization. […]
9-11 days post EAE induction, 54 animals were divided to 10 groups (5-6 rats in each), and blood was collected from 2 rats of each group before the initiation of the treatment. […] The animals were maintained and evaluated until day 28th post EAE-induction. […]
Animals were observed individually and clinical signs were recorded once daily during all study periods. […] The body weight of each animals was determined daily during all study periods. […]

anti-MBP autoantibody = assay: Serum anti-MBP autoantibody titer in EAE DA rats (Example 11); assay type: in vivo; conditions: EAE DA rats treated as in Example 10
Experimental: To determine anti-MBP autoantibody binding patters in sera from the EAE-induced rodent models and human MS patients, ELISA experiments were performed as follows. Microtiter plates (MaxiSorp-Nunc) were coated with 50 μl of a 10 μg/ml MBP solution or recombinant MBP peptides in 100 mM carbonate/bicarbonate buffer pH 9.0, in odd column wells. Plates were sealed with ELISA plate sealer (Costar) and incubated at 4° C. overnight and then washed (300 μl/well) three times with phosphate-buffered saline (PBS) containing 0.15% Tween-20. All the wells were then blocked with 250 μl 2% bovine serum albumin (BSA) (Sigma) in carbonate/bicarbonate buffer pH 9.0 and incubated for 1 hr at 37° C. The plates were washed with PBS containing 0.15% Tween-20. Serum antibodies were diluted in PBS containing 0.15% Tween-20 and 0.5% BSA at the final dilution of 1:1000-1:50000, and 50 μl of the diluted sample was added to each well of the plate. Rat anti-MBP monoclonal antibody (ab7349, Abcam) was used as control. […] The OD450 values were measured using a microplate reader Varioscan (Thermo, USA).
To investigate the immunological status of EAE induced DA rats after treatment with liposomally encapsulated MBP peptides, serum isolated from rats treated as described in Example 10 was analyzed for anti-MBP antibodies and CNS cytokine staining (FIG. 5). […]

glatiramer acetate [copaxone]
Mortality Rate (EAE-induced DA rats): 1/5 | Serum anti-MBP Antibody titer (anti-MBP autoantibody): 1.0 ± 0.1
